Laboratory results reported in US4378366A, “2-[Trifluoroethylamine]oxazolines” (Science Union et Cie, priority 1978, dated 1983).

Assay: solubility in dilute aqueous hydrochloric acid
Format: physicochemical
Details: dilute or N/10 aqueous hydrochloric acid; hydrochloride formed

Compound | solubility in hydrochloric acid solution
CC(NC1=NCCO1)C(F)(F)F (racemic) [I, dl 2-(α-trifluoromethylethylamino)oxazoline] | soluble in the dilute aqueous solutions of hydrochloric acid
FC(F)(F)C(NC1=NCCO1)C1CC1 (racemic) [II, dl 2-[(1-trifluoromethyl 1-cyclopropyl)methylamino]oxazoline] | easily soluble in an aqueous solution of the just calculated amount of N/10 hydrochloric acid
CC(C)CC(NC1=NCCO1)C(F)(F)F (racemic) [III, dl 2-(1-trifluoromethyl 3-methylbutylamino)oxazoline] | soluble in dilute hydrochloric acid
FC(F)(F)C(F)(F)C(NC1=NCCO1)C1CCCCC1 (racemic) [X, dl 2-[(1-pentafluoroethyl 1-cyclohexyl)methylamino]oxazoline] | soluble in N/10 hydrochloric acid solutions
FC(F)(F)C(NC1=NCCO1)C1CCCCC1 (single isomer, unassigned) [IV, 2-[(1-trifluoromethyl 1-cyclohexyl)methylamino]oxazoline (dextrorotatory isomer)] | soluble in dilute hydrochloric acid
FC(F)(F)C(NC1=NCCCN1)C1CCCCC1 (single isomer, unassigned) [XI, 2-[(1-trifluoromethyl 1-cyclohexyl)methylamino]tetrahydropyrimidine (laevorotatory isomer)] | soluble in N/10 hydrochloric acid solutions
